# Results: US12102690B2, “Preparation method and application of biomimetic nano-protectant for detoxifying dox-induced cardiac and systemic toxicity” (priority 2021, dated 2024)
# What was measured:
# [1] = Change in weight of tumor-bearing B6 rats; assay type: in vivo; conditions: Day0 to Day24, TC1 tumor-bearing B6 rats
# Method: (§1) When the tumor volume reached 70-80 mm^3, the NPs+DOX group, the DOX group alone and the NC group were performed respectively; and then changes in size of tumor tissues and the changes in weight of B6 rats were observed and measured from Day0 to Day24. […] However, the volume of tumor tissues in the NC group increases to about 200 times of the initial volume on Day24 (FIG. 20A). […] Meanwhile, due to the rapid growth of tumor tissues in the NC group, the weight of NC group is increased greatly (FIG. 20B).
# [2] = tested on: TC1 cells subcutaneous transplanted tumor model of cervical cancer; test: Tumor inhibition in subcutaneous transplanted tumor model of cervical cancer; assay type: in vivo; conditions: Day24, TC1 tumor-bearing B6 rats
# Method: as §1
# [3] = tested on: H9C2 myocardial cells; test: Survival rate of myocardial cells with CCK-8 reagent after IC50 dose of DOX; assay type: cell-based, rat; conditions: DOX group alone, 24 h
# Method: Different doses of biomimetic nano-protectant DNA&Pro@RBCM-PCM/KALA were added into H9C2 myocardial cells for incubation for 4 h; then, IC50 (50% Inhibitory Concentration) dose of DOX was added; the survival rate of H9C2 myocardial cells was detected with a CCK-8 reagent after 24 h; and a DOX group alone (with a DNA concentration of 0) and a treatment-free NC group (Negative Control) were set as experimental control groups. […] To further describe the protection mechanism of the biomimetic nano-protectant PCM/KALA-RBCM@DNA&Pro, in the invention, a dose of the biomimetic nano-protectant PCM/KALA-RBCM@DNA&Pr (NPs) is determined for protecting the damage of the IC50 dose of DOX to the H9C2 myocardial cells, while three important apoptosis pathway signal molecules (including Bax, Bcl2 and Caspase-3) are selected for Western Blot (WB) test (see FIG. 12).
compound,measurement,setting,value
"COc1cccc2c1C(=O)c1c(O)c3c(c(O)c1C2=O)C[C@@](O)(C(=O)CO)C[C@@H]3O[C@H]1C[C@H](N)[C@H](O)[C@H](C)O1 [DOX, doxorubicin]",change in weight of B6 rats,[1],sudden loss of weight
same,tumor volume at the end of Day24 relative to the initial volume,[2],about 15 times of the initial volume
same,survival rate of H9C2 cells,[3],about 50%
